Experimental data as given in patent US10722491B2, “Phenol compound and combination of same with a benzodiazepine fused to 1,4-dihydropyridine for treating diseases of the central nervous and vascular systems” (UNIVERSIDAD DE LA HABANA, priority 2016, dated 2020).

How the values were obtained:
[1] = test system: rat brain homogenate; experiment: Spontaneous or Fe3+/AA-induced lipid peroxidation (POL) in rat brain homogenate; format: biochemical; details: 37° C 1 hour, MDA
Procedure: FIG. 5. Effects of KM-34 (0.01-100 μM) on spontaneous lipid peroxidation and e induced by 100 mM FeCl3 and 100 mM AA. The control contains absolute ethanol instead of KM-34. The samples were incubated at 37° C for 1 hour and then the MDA levels were quantified by thiobarbituric acid (ATB) and the absorbance was determined at 532 nm. Values are expressed as the mean ± SD (n=3). *P<0.05 with respect to the control.
The brain homegenate is rich in phospholipids, which undergo spontaneous or induced autoxidation by the presence of FeCl3 and AA, where the latter is oxidized at the expense of the metal being reduced and thus the ion is available to catalyze the Fenton-Habber reaction-Weiss (Hiroi et al., 2005; Kooncumchoo, 2005).

[2] = test system: scopolamine cognitive deficit; experiment: Scopolamine-induced dementia, T maze spontaneous alternation; format: in vivo, rats; details: 2, 4 and 8 mg/kg p.o., 1 hour before scopolamine 1 mg/kg i.p.
Procedure: FIG. 11. Effect of KM-34 on spatial memory. In the T labyrinth, KM-34 (2, 4 and 8 mg/k, p.o) was given 1 hour prior to scopolamine (1 mg/kg, i.p.). Data are expressed as mean ± SD (n=7, per group) of the percentage of spontaneous alternation. For statistical anal sis ANOVA and Tukey's multiple comparison test were performed. Different letters differ from each other for p<0.01. In in vivo models, KM-34 was administered orally (p.o) at a rate of 4 mL/kg body weight. Doses of 2, 4 and 8 mg/kg were evaluated as acute administration 90 minutes before the start of behavioral tests. For administration the compound was suspended in carboxymethylcellulose (CMC) 0.05%. Scopolamine bromide was dissolved in 0.9% saline solution and administered intraperitoneally as a single dose (1 mg/kg, 4 mL/kg body weight) 30 minutes prior to the initiation of the behavioral tests. The animals were randomly selected and divided into 5 experimental groups with different treatments (n=7, per group): control group (CMC and saline), vehicle group (CMC and scopolamine 1 mg/kg), KM-34 (KM-34 4 mg/kg and scopolamine 1 mg/kg) and (KM-34 8 mg/kg and scopolamine 1 mg/kg). […] The series of entries to each arm was recorded and the percentage of alternation was calculated as: (number of alternations performed/total of possible alternations)×100. […]

[3] = test system: PC12 cells; experiment: Cytoprotection against H2O2 damage in PC12 cells (MTT); format: cell-based
Procedure: FIG. 7. Cytoprotective effect of KM-34 (1-100 μM) against damage induced by H2O2 (150 μM) in cultures of PC12 cells. Viability (% live cells) was determined by the MTT assay. Cells were seeded at a density of 5×10^5 cells/mL in a 96-well plate. The KM-34 was added simultaneously to the addition of the H2O2 mixture. The culture was then allowed to incubate at 37° C, […] and 5% CO 2 for 4 hours. After this time the supernatant was removed and the cells were incubated with 20 μg of MTT for an additional 2 hours and the absorbance at 450 nm was measured with reference to 630 nm. The results are expressed as percentage of live cells relative to the control (undamaged cells, 100% live cells). The * represents significant differences (p<0.05) with respect to the H2O2 control.
FIG. 15. The survival rate for […] administered 150 μM H2O2 is shown. The control group was not administered 150 μM H2O2. The remaining four groups were administered 150 μM H2O2. The “H2O2 150 μM” group was not administered any compounds of the invention. The “JM 1 μM” group was administered 1 μM JM-20. The “KM 0.1 μM” group was administered 0.1 μM KM-34. The “JM 1 μM+KM 0.1 μM” group was administered 1 μM JM-20 and 0.1 μM KM-34.
H2O2 is formed in vivo spontaneously or enzymatically. At low concentrations this may be poorly reactive, however at high concentrations it may interact with and generate inactivation of the energy generating systems of the cells. In addition H2O2 is able to oxidize —SH groups of proteins and cause DNA strand rupture. Their most damaging effect is the formation of catalyzed transition metals by the Fenton-Habber-Weiss reaction (Martinez, 2005). This is based on the use of H2O2 in this test, with the aim of observing if the KM-34 is capable of reversing the damages caused by the chemical agent.

[4] = test system: animals damaged with 6-OHDA; experiment: 6-OHDA Parkinson's model, vertical exploratory activity; format: in vivo, rats

**Q.** With `CC1(C)OC(=O)C(=Cc2ccc(O)c(O)c2)C(=O)O1` [KM-34, 5-[(3,4-dihydroxyphenyl)methylidene]-2,2-dimethyl-1,3-dioxane-4,6-dione] as the compound, how does the “Concentration significantly inhibiting Fe3+/AA-induced POL” value ([1]; induced by FeCl3 and AA) read?
**A.** > 10 µM

**Q.** And the “Concentration significantly inhibiting spontaneous POL” value ([1]; spontaneous lipid peroxidation)?
**A.** higher than 0.1 μM

**Q.** What about the “Spatial memory, percentage of spontaneous alternation in T maze” value [2] of the same compound?
**A.** significantly (p<0.01) protected from spatial memory damage

**Q.** What about the “Concentration achieving significant cellular survival against H2O2” value ([3]; 150 μM H2O2, 4 hours) of the same compound?
**A.** higher than 5 μM

**Q.** And the “% cell survival” value ([3]; 150 μM H2O2, concentrations higher than 50 μM)?
**A.** ~90%

**Q.** What about the Cellular survival response ([3]; 150 μM H2O2, from 25 μM KM-34) of the same compound?
**A.** higher than 50%

**Q.** And the Vertical exploratory behavior ([4]; 0.5 and 1 mg doses, vs damaged animals)?
**A.** did not show statistically significant differences

**Q.** What about the Vertical exploratory behavior ([4]; maximum dose 2 mg/Kg) of the same compound?
**A.** statistically significant differences with respect to damaged animals
